Reference: patent US20080207617A1, “Quinoline Derivatives and Quinazoline Derivatives Inhibiting Autophosphrylation of Flt3 and Medicinal Compositions Containing the Same” (KIRIN BEER KABUSHIKI KAISHA, priority 2002, published 2008)

What was measured:
[1] = test system: MOLM13; experiment: Cell growth inhibitory activity using MTT method (MOLM13); assay type: cell-based, human; conditions: Homo sapiens, MOLM-13, 72 h, MOLM13 cells
Method: Pharmacological Test Example 3
Measurement of Cell Growth Inhibitory Activity Using MTT Method
Human leukemia cell line MOLM13 (subdivided from Hayashibara Biochemical Laboratories, Inc.) was cultured in an RPMI medium containing 10% fetal calf serum (purchased from Asahi Techno Glass Corporation) within a 5% carbon dioxide incubator until the cell density reached 50 to 90% of the maximum cell density. These cells were seeded into wells, containing an RPMI medium containing 10% fetal calf serum, in a 96-well flat bottom plate in an amount of […] per well. The amount of the solution of the medium in each well was brought to 100 μl, and a test compound was added thereto to 500 ng, 100 ng, 20 ng, and 4 ng per ml. After culture within an incubator for 72 hr, 10 μl of a 5 mg/ml MTT (3-(4,5-dimethylthiazol-2-yl)-2,5-diphenyl tetrazolium bromide) solution (purchased from SIGMA) was added to the medium, and a reaction was allowed to proceed for 4 hr. Thereafter, 100 μl of a 0.04 N hydrochloric acid-isopropanol solution was added to completely dissolve the resultant MTT formazan crystal. After the dissolution, absorbance at 550 nm was measured using 620 nm as a reference wavelength with a microplate reader (DIGISCAN) (It is regarded that, in the MTT method, the viable cell count is reflected, and linearity is observed in a cell count per well range of 5×10^5 to 2×10^2 cells). After 72 hr, the absorbance of only the medium free from cells was subtracted from the absorbance of the well without the addition of the test compound to determine a value which was presumed to be 100%. On the other hand, the absorbance with the addition of the compound was expressed in terms of % growth.

[2] = test system: MOLM13; experiment: Cell growth inhibitory activities on cultured human leukemia cells MOLM-13 (WST-1); assay type: cell-based; conditions: Homo sapiens, MOLM-13, 72 h, 3 days culture
Method: Pharmacological Test Example 4
Cell Growth Inhibitory Activities on Cultured Human Leukemia Cells
(§1) Human leukemia cells MOLM13 (subdivided from Hayashibara Biochemical Laboratories, Inc.) were seeded in an amount of 3×10^3 using a DMEM medium containing 10% fetal calf serum (purchased from GIBCO) in a 96-well flat bottom plate. A solution of a test compound in dimethyl sulfoxide was added to each well and was cultured in a 5% carbon dioxide incubator for 3 days. Three days after the initiation of the culture, 10 μl of a WST-1 solution in Cell Counting Kit (purchased from Wako Pure Chemical Industries, Ltd.) was added to each well for a color reaction. After proper color development, the absorbance was measured with a microplate reader under conditions of measurement wavelength 450 nm and reference wavelength 650 nm. The growth ratio for each well was determined by presuming the absorbance without the addition of the medicament to be 100% growth ratio and the absorbance of the well without seeding of the cells to be 0% growth ratio. The concentration of the test compound was varied on several levels, the cell growth ratio for each case was determined, and the concentration of the test compound necessary for inhibiting 50% of cell growth ratio (IC50) was calculated.

[3] = test system: MV4-11; experiment: Cell growth inhibitory test MV4-11 (WST-1); assay type: cell-based, human; conditions: Homo sapiens, MV4-11, 72 h, MV4-11 cells, 3 days culture
Method: Pharmacological Test Example 2
Cell Growth Inhibitory Test
MV4-11 (ATCC number: CRL-9591) as human leukemia cells was seeded in an amount of 3×10^3 using a DMEM medium containing 10% fetal calf serum (purchased from GIBCO) in a 96-well flat bottom plate.
as §1, with “A” for “Human leukemia cells MOLM13 (subdivided from Hayashibara Biochemical Laboratories, Inc.) were seeded in an amount of 3×10^3 using a DMEM medium containing 10% fetal calf serum (purchased from GIBCO) in a 96-well flat bottom plate. A”

SMILES	IC50 [1] [nM]	IC50 [2] [nM]	IC50 [3] [nM]
COc1cc2c(Oc3ccc(NC(=O)NCCC(C)(C)C)c(Cl)c3)ccnc2cc1OCCCN1CCCCC1 [Compound 46, 1-{2-Chloro-4-[6-methoxy-7-(3-piperidin-1-yl-propoxy)-quinolin-4-yloxy]-phenyl}-3-(3,3-dimethyl-butyl)-urea]	76.8	123	145
CCN(CC)CCCOc1cc2nccc(Oc3ccc(NC(=O)NCCC(C)(C)C)c(Cl)c3)c2cc1OC [Compound 47, 1-{2-Chloro-4-[7-(3-diethylamino-propoxy)-6-methoxy-quinolin-4-yloxy]-phenyl}-3-(3,3-dimethyl-butyl)-urea]	135	60	51
COc1cc2c(Oc3ccc(NC(=O)NCCC(C)(C)C)cc3)ccnc2cc1OCCN1CC(C)CC(C)C1 (stereo not drawn) [Compound 53, 1-(3,3-Dimethyl-butyl)-3-(4-{7-[2-(3,5-dimethyl-piperidin-1-yl)-ethoxy]-6-methoxy-quinolin-4-yloxy}-phenyl)-urea]	16.7	13	4
COc1cc2c(Oc3ccc(NC(=O)NCCC(C)(C)C)cc3)ccnc2cc1OCCCN1CC(C)CC(C)C1 (stereo not drawn) [Compound 54, 1-(3,3-Dimethyl-butyl)-3-(4-{7-[3-(3,5-dimethyl-piperidin-1-yl)-propoxy]-6-methoxy-quinolin-4-yloxy}-phenyl)-urea]	19.7	10	3
COc1cc2c(Oc3ccc(NC(=O)NCCC(C)(C)C)c(F)c3)ccnc2cc1OCCN1C(C)CCCC1C (stereo not drawn) [Compound 60, 1-(3,3-Dimethyl-butyl)-3-(4-{7-[2-(2,6-dimethyl-piperidin-1-yl)-ethoxy]-6-methoxy-quinolin-4-yloxy}-2-fluoro-phenyl)-urea]	108	59	33

The next lines start with the values.

IC50 [1] [nM]	IC50 [2] [nM]	IC50 [3] [nM]	SMILES
36.8	25	6	COc1cc2c(Oc3ccc(NC(=O)NC4CCCC(C)(C)C4)cc3F)ccnc2cc1OCCN1CCCCC1 (stereo not drawn) [Compound 55, 1-(3,3-Dimethyl-cyclohexyl)-3-{3-fluoro-4-[6-methoxy-7-(2-piperidin-1-yl-ethoxy)-quinolin-4-yloxy]-phenyl}-urea]
11.3	26	14	COc1cc2c(Oc3ccc(NC(=O)NC4CC(C)CC(C)(C)C4)cc3F)ccnc2cc1OCCN1CCCCC1 (stereo not drawn) [Compound 56, 1-{3-Fluoro-4-[6-methoxy-7-(2-piperidin-1-yl-ethoxy)-quinolin-4-yloxy]-phenyl}-3-(3,3,5-trimethyl-cyclohexyl)-urea]
120	29	19	COc1cc2c(Oc3ccc(NC(=O)NC4CC(C)CC(C)(C)C4)c(F)c3)ccnc2cc1OCCN1CCCCC1 (stereo not drawn) [Compound 57, 1-{2-Fluoro-4-[6-methoxy-7-(2-piperidin-1-yl-ethoxy)-quinolin-4-yloxy]-phenyl}-3-(3,3,5-trimethyl-cyclohexyl)-urea]
51.6	17	4	COc1cc2c(Oc3ccc(NC(=O)NCCC4CCCCC4)cc3F)ccnc2cc1OCCN1CCCCC1 [Compound 58, 1-(2-Cyclohexyl-ethyl)-3-{3-fluoro-4-[6-methoxy-7-(2-piperidin-1-yl-ethoxy)-quinolin-4-yloxy]-phenyl}-urea]
26.5	7	4	COc1cc2c(Oc3ccc(NC(=O)NCCC(C)(C)C)cc3F)ccnc2cc1OCCN1C(C)CCCC1C (stereo not drawn) [Compound 62, 1-(3,3-Dimethyl-butyl)-3-(4-{7-[2-(2,6-dimethyl-piperidin-1-yl)-ethoxy]-6-methoxy-quinolin-4-yloxy}-3-fluoro-phenyl)-urea]
47.8	22	10	COc1cc2c(Oc3ccc(NC(=O)NCCC(C)(C)CO)c(F)c3)ccnc2cc1OCCN1CCCCC1 [Compound 63, 1-{2-Fluoro-4-[6-methoxy-7-(2-piperidin-1-yl-ethoxy)-quinolin-4-yloxy]-phenyl}-3-(4-hydroxy-3,3-dimethyl-butyl)-urea]
